Values of other authors, collected in patent publication US5525347A, “Composition and methods for treating performance anxiety” (Medical University of South Carolina, priority 1995, dated 1996).
Where a name gives a salt, the structure may show the parent alone.

How the values were obtained:
[1] = not given; remark: listed apart in the source
social phobia = conditions: case reports; 10-120 mg

SMILES: CC(C)NCC(O)COc1cccc2ccccc12 (stereo not shown) [Propranolol Hydrochloride, 1-(Isopropylamino)-3-(1-napthyloxy)-2-propanol hydrochloride]
- stability to heat (heat): stable to heat
- stability in light (light): unstable in light
- Solubility in chloroform ([1]; chloroform): slightly soluble
- Solubility in ether ([1]; ether): practically insoluble
- Solubility in alcohol ([1]; volume of alcohol for 1 g): 20 mL
- Solubility in water ([1]; volume of water for 1 g): 20 mL
- efficacy in social phobia (social phobia): suggest efficacy
